# Experimental data from patent US20070117743A1, “New antitumoral compounds” (priority 2003, published 2007).
# Like-named read-outs stand apart in the source and are kept apart here.
# Key:
# Type in all cases: cell-based, human
# A-549 = experiment: SRB colorimetric assay of cell growth and viability, A-549; conditions: 48 hours exposure; for GI50: read-out: GI50 A-549; for CC50: read-out: LC50 A-549
# IGROV-1 = experiment: SRB colorimetric assay of cell growth and viability, IGROV-1; conditions: 48 hours exposure
# PANC-1 = experiment: SRB colorimetric assay of cell growth and viability, PANC-1; conditions: 48 hours exposure; for CC50: read-out: LC50 PANC-1
# LNCaP = experiment: SRB colorimetric assay of cell growth and viability, LNCaP; conditions: 48 hours exposure; for GI50: read-out: GI50 LN-caP; for CC50: read-out: LC50 LN-caP
# SK-BR-3 = experiment: SRB colorimetric assay of cell growth and viability, SK-BR-3; conditions: 48 hours exposure
# HeLa = experiment: SRB colorimetric assay of cell growth and viability, HeLa; conditions: 48 hours exposure; for CC50: read-out: LC50 HELA
# IGROV-ET = experiment: SRB colorimetric assay of cell growth and viability, IGROV-ET; conditions: 48 hours exposure; for CC50: read-out: LC50 IGROV-ET
# HT-29 = experiment: SRB colorimetric assay of cell growth and viability, HT-29; conditions: 48 hours exposure; for GI50: read-out: GI50 HT-29; for CC50: read-out: LC50 HT-29
# LoVo-Dox = experiment: SRB colorimetric assay of cell growth and viability, LoVo-Dox; conditions: 48 hours exposure; for CC50: read-out: LC50 LOVO-DOX
# In short: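 Absorbance at 490 nm of Tris-solubilized sulforhodamine B gives the read-out after cells are fixed with cold 50% TCA for 60 min at 4° C. Compound exposure lasts 48 hours over 10 to 10^−8 μg/mL. Growth inhibition, total growth inhibition and lethal concentration are calculated from triplicate wells.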
# SK-MEL-28 = experiment: SRB colorimetric assay of cell growth and viability, SK-MEL-28; conditions: 48 hours exposure; for CC50: read-out: LC50 MEL-28
# HeLa-APL = experiment: SRB colorimetric assay of cell growth and viability, HeLa-APL; conditions: 48 hours exposure; for CC50: read-out: LC50 HELA-APL
# LoVo = experiment: SRB colorimetric assay of cell growth and viability, LoVo; conditions: 48 hours exposure; for CC50: read-out: LC50 LOVO
# DU-145 = experiment: SRB colorimetric assay of cell growth and viability, DU-145; conditions: 48 hours exposure
# K-562 = experiment: SRB colorimetric assay of cell growth and viability, K-562; conditions: 48 hours exposure; for CC50: read-out: LC50 K-562
smiles,measurement,setting,value
"C/C=C1\NC(=O)[C@H](Cc2ccccc2)NC(=O)[C@@H](C(C)C)NC(=O)[C@@H]([C@@H](C)CC)NC(=O)[C@H](NC(=O)[C@H](NC(=O)[C@H](CCCN)NC(=O)[C@H]2CCCN2C(=O)[C@H](NC(=O)[C@@H](NC(=O)[C@@H](NC(=O)[C@H](NC(=O)CCCCCCCCCC)C(C)C)[C@@H](C)O)C(C)C)C(C)C)[C@@H](C)CC)[C@@H](C)OC(=O)[C@H](C(C)C)NC1=O [Compound 15, [Und^14]-KF]",TGI A-549,A-549,3.39E−07 Molar
same,GI50,A-549,143 nM
same,CC50,A-549,1.69 µM
same,GI50,IGROV-1,158 nM
same,LC50 (concentration causing 50% net cell killing),IGROV-1,1540 nM
same,TGI IGROV,IGROV-1,3.72E−07 Molar
same,GI50,PANC-1,1230 nM
same,TGI PANC-1,PANC-1,2.28E−06 Molar
same,CC50,PANC-1,4.2 µM
same,TGI LN-caP,LNCaP,1.44E−06 Molar
same,GI50,LNCaP,529 nM
same,CC50,LNCaP,3.48 µM
same,GI50,SK-BR-3,26.7 nM
same,LC50,SK-BR-3,468 nM
same,TGI SK-BR-3,SK-BR-3,7.43E−08 Molar
same,GI50,HeLa,120 nM
same,TGI HELA,HeLa,2.65E−07 Molar
same,CC50,HeLa,0.588 µM
same,GI50,IGROV-ET,235 nM
same,TGI IGROV-ET,IGROV-ET,8.41E−07 Molar
same,CC50,IGROV-ET,3.34 µM
same,TGI HT-29,HT-29,2.70E−07 Molar
same,GI50,HT-29,127 nM
same,CC50,HT-29,574 nM
same,GI50,LoVo-Dox,40.8 nM
same,TGI LOVO-DOX,LoVo-Dox,1.65E−07 Molar
same,CC50,LoVo-Dox,0.478 µM
same,GI50,SK-MEL-28,169 nM
same,TGI MEL-28,SK-MEL-28,4.45E−07 Molar
same,CC50,SK-MEL-28,2040 nM
same,GI50,HeLa-APL,229 nM
same,TGI HELA-APL,HeLa-APL,8.47E−07 Molar
same,CC50,HeLa-APL,3.55 µM
same,GI50,LoVo,117 nM
same,TGI LOVO,LoVo,2.67E−07 Molar
same,CC50,LoVo,604 nM
same,GI50,DU-145,162 nM
same,LC50 (concentration causing 50% net cell kill),DU-145,1040 nM
same,TGI DU-145,DU-145,3.53E−07 Molar
same,GI50,K-562,1150 nM
same,TGI K-562,K-562,2.18E−06 Molar
same,CC50,K-562,4.1 µM
"C/C=C1\NC(=O)[C@H](Cc2ccccc2)NC(=O)[C@@H](C(C)C)NC(=O)[C@@H]([C@@H](C)CC)NC(=O)[C@H](NC(=O)[C@H](NC(=O)[C@H](CCCN)NC(=O)[C@H]2CCCN2C(=O)[C@H](NC(=O)[C@@H](NC(=O)[C@@H](NC(=O)[C@@H](CC2CCCCC2)NC(=O)CCCC(C)C)[C@@H](C)O)C(C)C)C(C)C)[C@@H](C)CC)[C@@H](C)OC(=O)[C@H](C(C)C)NC1=O [Compound 8, [D-Cha^13]-KF]",TGI A-549,A-549,4.18E−06 Molar
same,GI50,A-549,1970 nM
same,CC50,A-549,6.53 µM
same,GI50,IGROV-1,1040 nM
same,LC50 (concentration causing 50% net cell killing),IGROV-1,4290 nM
same,TGI IGROV,IGROV-1,2.11E−06 Molar
same,GI50,PANC-1,6530 nM
same,TGI PANC-1,PANC-1,6.53E−06 Molar
same,CC50,PANC-1,6.53 µM
same,TGI LN-caP,LNCaP,6.53E−06 Molar
same,GI50,LNCaP,2790 nM
same,CC50,LNCaP,6.53 µM
same,GI50,SK-BR-3,484 nM
same,LC50,SK-BR-3,3170 nM
same,TGI SK-BR-3,SK-BR-3,1.25E−06 Molar
same,GI50,HeLa,1400 nM
same,TGI HELA,HeLa,2.30E−06 Molar
same,CC50,HeLa,3.8 µM
same,GI50,IGROV-ET,652 nM
same,TGI IGROV-ET,IGROV-ET,1.44E−06 Molar
same,CC50,IGROV-ET,3.16 µM
same,TGI HT-29,HT-29,1.99E−06 Molar
same,GI50,HT-29,992 nM
same,CC50,HT-29,3990 nM
same,GI50,LoVo-Dox,986 nM
same,TGI LOVO-DOX,LoVo-Dox,2.09E−06 Molar
same,CC50,LoVo-Dox,4.43 µM
same,GI50,SK-MEL-28,1450 nM
same,TGI MEL-28,SK-MEL-28,2.42E−06 Molar
same,CC50,SK-MEL-28,4020 nM
same,GI50,HeLa-APL,1700 nM
same,TGI HELA-APL,HeLa-APL,2.87E−06 Molar
same,CC50,HeLa-APL,4.86 µM
same,GI50,LoVo,1010 nM
same,TGI LOVO,LoVo,1.96E−06 Molar
same,CC50,LoVo,3820 nM
same,GI50,DU-145,1330 nM
same,LC50 (concentration causing 50% net cell kill),DU-145,4260 nM
same,TGI DU-145,DU-145,2.38E−06 Molar
same,GI50,K-562,1930 nM
same,TGI K-562,K-562,4.92E−06 Molar
same,CC50,K-562,6.53 µM
"C/C=C1\NC(=O)[C@H](Cc2ccccc2)NC(=O)[C@@H](C(C)C)NC(=O)[C@@H]([C@@H](C)CC)NC(=O)[C@H](NC(=O)[C@H](NC(=O)[C@H](CCCN)NC(=O)[C@H]2CCCN2C(=O)[C@H](NC(=O)[C@@H](NC(=O)[C@@H](NC(=O)[C@H](NC(=O)CC[C@@H](C)[C@H]2CC[C@H]3[C@@H]4CC[C@@H]5C[C@H](OC(=O)C(F)(F)F)CC[C@]5(C)[C@H]4CC[C@]23C)C(C)C)[C@@H](C)OC(=O)C(F)(F)F)C(C)C)C(C)C)[C@@H](C)CC)[C@@H](C)OC(=O)[C@H](C(C)C)NC1=O [Compound 97, [Thr(OTfa)^12, Lit(OTfa)^14]-Kahalalide F]",TGI A-549,A-549; SRB,1.96E−06 Molar
same,GI50,A-549; SRB,1050 nM
same,CC50,A-549; SRB,3.64 µM
same,GI50,IGROV-1; SRB,244 nM
same,LC50 (concentration causing 50% net cell killing),IGROV-1; SRB,2200 nM
same,TGI IGROV,IGROV-1; SRB,4.64E−07 Molar
same,GI50,PANC-1; SRB,2640 nM
same,TGI PANC-1,PANC-1; SRB,5.22E−06 Molar
same,CC50,PANC-1; SRB,5.22 µM
same,TGI LN-caP,LNCaP; SRB,1.81E−06 Molar
same,GI50,LNCaP; SRB,866 nM
same,CC50,LNCaP; SRB,3.77 µM
same,GI50,SK-BR-3; SRB,45.5 nM
same,LC50,SK-BR-3; SRB,324 nM
same,TGI SK-BR-3,SK-BR-3; SRB,1.17E−07 Molar
same,GI50,HeLa; SRB,809 nM
same,TGI HELA,HeLa; SRB,1.78E−06 Molar
same,CC50,HeLa; SRB,3.89 µM
same,GI50,IGROV-ET; SRB,232 nM
same,TGI IGROV-ET,IGROV-ET; SRB,4.57E−07 Molar
same,CC50,IGROV-ET; SRB,2.38 µM
same,TGI HT-29,HT-29; SRB,3.36E−07 Molar
same,GI50,HT-29; SRB,176 nM
same,CC50,HT-29; SRB,1190 nM
same,GI50,LoVo-Dox; SRB,186 nM
same,TGI LOVO-DOX,LoVo-Dox; SRB,3.96E−07 Molar
same,CC50,LoVo-Dox; SRB,4.12 µM
same,GI50,SK-MEL-28; SRB,128 nM
same,TGI MEL-28,SK-MEL-28; SRB,2.21E−07 Molar
same,CC50,SK-MEL-28; SRB,384 nM
same,GI50,HeLa-APL; SRB,751 nM
same,TGI HELA-APL,HeLa-APL; SRB,1.61E−06 Molar
same,CC50,HeLa-APL; SRB,3.44 µM
same,GI50,LoVo; SRB,128 nM
same,TGI LOVO,LoVo; SRB,3.01E−07 Molar
same,CC50,LoVo; SRB,1090 nM
same,GI50,DU-145; SRB,517 nM
same,LC50 (concentration causing 50% net cell kill),DU-145; SRB,2810 nM
same,TGI DU-145,DU-145; SRB,1.21E−06 Molar
same,GI50,K-562; SRB,1280 nM
same,TGI K-562,K-562; SRB,2.34E−06 Molar
same,CC50,K-562; SRB,4.27 µM
